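Cells were grown in 96-well plates and exposed to each compound for 48 hours at five concentrations; endpoints were interpolated linearly between bracketing concentrations, or set to the highest concentration if not reached. TGI: concentration producing complete growth inhibition.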
Experiments:
Assay in all cases: NCI tumour cell line growth inhibition, 48 h
HT29 colon = test system: HT29 colon
EKVX NSCLC = test system: EKVX NSCLC
SNB-78 CNS = test system: SNB-78 CNS
NCI-H226 lung = test system: NCI-H226 lung
UO-31 renal = test system: UO-31 renal
SF-539 CNS = test system: SF-539 CNS
A498 renal = test system: A498 renal
P388 leukemia = test system: P388 leukemia
KM20L2 colon = test system: KM20L2 colon
HL-60(TB) leukemia = test system: HL-60(TB) leukemia
RXF 393 renal = test system: RXF 393 renal
OVCAR-4 ovarian = test system: OVCAR-4 ovarian
SNB-19 CNS = test system: SNB-19 CNS
MCF7 breast = test system: MCF7 breast
SN12C renal = test system: SN12C renal
XF 498 CNS = test system: XF 498 CNS
HOP-18 NSCLC = test system: HOP-18 NSCLC
IGROV1 ovarian = test system: IGROV1 ovarian
OVCAR-3 ovarian = test system: OVCAR-3 ovarian
UACC-62 melanoma = test system: UACC-62 melanoma
SK-MEL-2 melanoma = test system: SK-MEL-2 melanoma
OVCAR-5 ovarian = test system: OVCAR-5 ovarian
HCC-2998 colon = test system: HCC-2998 colon
HCT-15 colon = test system: HCT-15 colon
SN12K1 renal = test system: SN12K1 renal
NCI/ADR-RES ovarian = test system: NCI/ADR-RES ovarian
NCI-H460 lung = test system: NCI-H460 lung
KM12 colon = test system: KM12 colon
HCT-116 colon = test system: HCT-116 colon
SK-MEL-5 melanoma = test system: SK-MEL-5 melanoma
SK-MEL-28 melanoma = test system: SK-MEL-28 melanoma
U251 CNS = test system: U251 CNS
SF-268 CNS = test system: SF-268 CNS
HOP-92 NSCLC = test system: HOP-92 NSCLC
A549 NSCLC = test system: A549 NSCLC
RPMI-8226 leukemia = test system: RPMI-8226 leukemia
COLO 205 colon = test system: COLO 205 colon
SF-295 CNS = test system: SF-295 CNS
NCI-H522 lung = test system: NCI-H522 lung
SNB-75 CNS = test system: SNB-75 CNS
NCI-H23 lung = test system: NCI-H23 lung
DLD-1 colon = test system: DLD-1 colon
MOLT-4 leukemia = test system: MOLT-4 leukemia
OVCAR-8 ovarian = test system: OVCAR-8 ovarian
M19-MEL melanoma = test system: M19-MEL melanoma
DMS 114 small cell lung = test system: DMS 114 small cell lung
P388/ADR leukemia = test system: P388/ADR leukemia
SK-OV-3 ovarian = test system: SK-OV-3 ovarian
CAKI-1 renal = test system: CAKI-1 renal
UACC-257 melanoma = test system: UACC-257 melanoma
LOX IMVI melanoma = test system: LOX IMVI melanoma
K-562 leukemia = test system: K-562 leukemia
HOP-62 NSCLC = test system: HOP-62 NSCLC
SW-620 colon = test system: SW-620 colon
MALME-3M melanoma = test system: MALME-3M melanoma
DMS 273 small cell lung = test system: DMS 273 small cell lung
CCRF-CEM leukemia = test system: CCRF-CEM leukemia

Q: `Nc1ccc2c(c1)C1=NNC(=O)CC1C2` (configuration not stated) was tested. Which TGI (HT29 colon) did it give?
A: The TGI was greater than 100 µM.

Q: And the TGI (EKVX NSCLC)?
A: Its TGI is greater than 100 µM.

Q: What about the TGI (SNB-78 CNS) of the same compound?
A: The TGI was greater than 100 µM.

Q: And the TGI (NCI-H226 lung)?
A: The TGI was greater than 100 µM.

Q: What about the TGI (UO-31 renal) of the same compound?
A: The TGI was greater than 100 µM.

Q: And the TGI (SF-539 CNS)?
A: Its TGI is greater than 100 µM.

Q: What about the TGI (A498 renal) of the same compound?
A: The TGI was greater than 100 µM.

Q: And the TGI (P388 leukemia)?
A: The TGI was greater than 100 µM.

Q: What about the TGI (KM20L2 colon) of the same compound?
A: The TGI was greater than 100 µM.

Q: And the TGI (HL-60(TB) leukemia)?
A: Its TGI is greater than 100 µM.

Q: And the TGI (RXF 393 renal)?
A: The TGI was greater than 100 µM.

Q: What about the TGI (OVCAR-4 ovarian) of the same compound?
A: Its TGI is greater than 100 µM.

Q: What about the TGI (SNB-19 CNS) of the same compound?
A: Its TGI is greater than 100 µM.

Q: What about the TGI (MCF7 breast) of the same compound?
A: The TGI was greater than 31.6 µM.

Q: What about the TGI (SN12C renal) of the same compound?
A: The TGI was greater than 100 µM.

Q: What about the TGI (XF 498 CNS) of the same compound?
A: Its TGI is greater than 100 µM.

Q: What about the TGI (HOP-18 NSCLC) of the same compound?
A: Its TGI is greater than 100 µM.

Q: What about the TGI (IGROV1 ovarian) of the same compound?
A: The TGI was greater than 100 µM.

Q: And the TGI (OVCAR-3 ovarian)?
A: The TGI was greater than 31.6 µM.

Q: And the TGI (UACC-62 melanoma)?
A: Its TGI is greater than 100 µM.

Q: And the TGI (SK-MEL-2 melanoma)?
A: The TGI was greater than 100 µM.

Q: What about the TGI (OVCAR-5 ovarian) of the same compound?
A: Its TGI is greater than 100 µM.

Q: What about the TGI (HCC-2998 colon) of the same compound?
A: The TGI was greater than 100 µM.

Q: And the TGI (HCT-15 colon)?
A: Its TGI is greater than 100 µM.

Q: And the TGI (SN12K1 renal)?
A: Its TGI is greater than 100 µM.

Q: And the TGI (NCI/ADR-RES ovarian)?
A: The TGI was greater than 100 µM.

Q: And the TGI (NCI-H460 lung)?
A: The TGI was greater than 100 µM.

Q: What about the TGI (KM12 colon) of the same compound?
A: The TGI was greater than 100 µM.

Q: And the TGI (HCT-116 colon)?
A: The TGI was greater than 100 µM.

Q: And the TGI (SK-MEL-5 melanoma)?
A: Its TGI is greater than 100 µM.

Q: What about the TGI (SK-MEL-28 melanoma) of the same compound?
A: Its TGI is greater than 100 µM.

Q: What about the TGI (U251 CNS) of the same compound?
A: The TGI was greater than 100 µM.

Q: What about the TGI (SF-268 CNS) of the same compound?
A: The TGI was greater than 100 µM.

Q: What about the TGI (HOP-92 NSCLC) of the same compound?
A: The TGI was greater than 100 µM.

Q: What about the TGI (A549 NSCLC) of the same compound?
A: Its TGI is greater than 100 µM.

Q: And the TGI (RPMI-8226 leukemia)?
A: Its TGI is greater than 100 µM.

Q: And the TGI (COLO 205 colon)?
A: The TGI was greater than 100 µM.

Q: What about the TGI (SF-295 CNS) of the same compound?
A: Its TGI is greater than 100 µM.

Q: And the TGI (NCI-H522 lung)?
A: The TGI was greater than 100 µM.

Q: And the TGI (SNB-75 CNS)?
A: Its TGI is greater than 100 µM.

Q: And the TGI (NCI-H23 lung)?
A: Its TGI is greater than 100 µM.

Q: And the TGI (DLD-1 colon)?
A: Its TGI is greater than 100 µM.

Q: And the TGI (MOLT-4 leukemia)?
A: Its TGI is greater than 100 µM.

Q: And the TGI (OVCAR-8 ovarian)?
A: The TGI was greater than 100 µM.

Q: What about the TGI (M19-MEL melanoma) of the same compound?
A: The TGI was greater than 100 µM.

Q: And the TGI (DMS 114 small cell lung)?
A: The TGI was greater than 100 µM.

Q: What about the TGI (P388/ADR leukemia) of the same compound?
A: The TGI was greater than 100 µM.

Q: What about the TGI (SK-OV-3 ovarian) of the same compound?
A: The TGI was greater than 100 µM.

Q: And the TGI (CAKI-1 renal)?
A: Its TGI is greater than 100 µM.

Q: And the TGI (UACC-257 melanoma)?
A: The TGI was greater than 100 µM.

Q: What about the TGI (LOX IMVI melanoma) of the same compound?
A: Its TGI is greater than 100 µM.

Q: And the TGI (K-562 leukemia)?
A: The TGI was greater than 100 µM.

Q: And the TGI (HOP-62 NSCLC)?
A: The TGI was greater than 100 µM.

Q: And the TGI (SW-620 colon)?
A: The TGI was greater than 100 µM.

Q: And the TGI (MALME-3M melanoma)?
A: The TGI was greater than 100 µM.

Q: And the TGI (DMS 273 small cell lung)?
A: The TGI was greater than 100 µM.

Q: And the TGI (CCRF-CEM leukemia)?
A: Its TGI is greater than 100 µM.

From PubChem BioAssay (NCI)
